This note sets out measurements from patent publication US11623924B2, “Modulators of alpha-1 antitrypsin” (Vertex Pharmaceuticals Incorporated, priority 2018, dated 2023).

The target in this test is T1, NL20 human bronchial epithelial cells expressing human Z-AAT (Homo sapiens, UniProt P01009, E366K).
T1 construct: expressed in transfected cells; host or cells: NL20 human bronchial epithelial cells (NL20-SI line, doxycycline added)
T1 sequence (P01009 25-418 E366K): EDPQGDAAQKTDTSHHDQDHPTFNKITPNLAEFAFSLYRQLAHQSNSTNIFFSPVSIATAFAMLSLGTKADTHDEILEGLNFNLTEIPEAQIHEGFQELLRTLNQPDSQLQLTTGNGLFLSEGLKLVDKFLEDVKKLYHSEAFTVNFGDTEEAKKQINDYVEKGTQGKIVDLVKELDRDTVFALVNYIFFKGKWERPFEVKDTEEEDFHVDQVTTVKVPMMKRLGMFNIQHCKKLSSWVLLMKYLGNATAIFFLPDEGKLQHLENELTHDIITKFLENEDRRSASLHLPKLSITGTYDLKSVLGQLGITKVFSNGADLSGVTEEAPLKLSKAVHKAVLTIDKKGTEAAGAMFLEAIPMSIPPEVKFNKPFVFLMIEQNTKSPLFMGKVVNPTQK
Put plainly: AAT Function Assay (MSD Assay NL20-SI Cell Line). The format is cell-based. As to conditions: functionally active AAT (AAT-hNE complex) in supernatant of NL20 cells expressing human Z-AAT; read-out: NL20 Func. (EC50). An outline of the steps:
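NL20 cells expressing Z-AAT, seeded 16,000 cells/well, received compound with doxycycline (0.1 μM final) and were incubated overnight at 37° C. Supernatants, diluted 45-fold in total, reacted with excess human neutrophil elastase; AAT-elastase complex captured on anti-AAT plates, detected with Sulfo-tagged anti-elastase by MSD electrochemiluminescence, and quantified against M-AAT standards (0.156-320 ng/mL).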
The term EC50 denotes the concentration at which the effect is half-maximal. On to `O=C(OCc1ccccc1)N1CCC(Cc2c(C3CCOCC3)n(-c3ccc(F)cc3)c3cc4cn[nH]c4cc23)CC1` [Compound 152, Benzyl 4-[[5-(4-fluorophenyl)-6-tetrahydropyran-4-yl-1H-pyrrolo[2,3-f]indazol-7-yl]methyl]piperidine-1-carboxylate], for which the EC50 lay within 1.16 to 3 µM.

Regarding `CC(=O)N1CCC(Cc2c(C3CCOCC3)n(-c3ccc(F)cc3)c3cc4cn[nH]c4cc23)CC1` [Compound 153, 1-[4-[[5-(4-fluorophenyl)-6-tetrahydropyran-4-yl-1H-pyrrolo[2,3-f]indazol-7-yl]methyl]-1-piperidyl]ethanone], the EC50 lay within 1.16 to 3 µM.

For the compound `O=C(OCc1ccccc1)N1CCCC(Cc2c(C3CCOCC3)n(-c3ccc(F)cc3)c3cc4cn[nH]c4cc23)C1` (stereo not shown) [Compound 154, benzyl 3-[[5-(4-fluorophenyl)-6-tetrahydropyran-4-yl-M-pyrrolo[2,3-f]indazol-7-yl]methyl]piperidine-1-carboxylate], the EC50 lay in the range of 1.16 to 3 µM.

As for `NC(=O)N1CCCC(Cc2c(C3CCOCC3)n(-c3ccc(F)cc3)c3cc4cn[nH]c4cc23)C1` (stereo not shown) [Compound 155, 3-[[5-(4-fluorophenyl)-6-tetrahydropyran-4-yl-1H-pyrrolo[2,3-f]indazol-7-yl]methyl]piperidine-1-carboxamide], the EC50 was above 3 µM.

For `CC(=O)NCCCc1c(C2CCOCC2)n(-c2ccc(F)cc2)c2cc3cn[nH]c3cc12` [Compound 156, N-[3-[5-(4-fluorophenyl)-6-tetrahydropyran-4-yl-1H-pyrrolo[2,3-f]indazol-7-yl]propyl]acetamide], the concentration giving a half-maximal response (EC50) is above 3 µM.

In the case of `NC(=O)NCCCc1c(C2CCOCC2)n(-c2ccc(F)cc2)c2cc3cn[nH]c3cc12` [Compound 157, 3-[5-(4-fluorophenyl)-6-tetrahydropyran-4-yl-1H-pyrrolo[2,3-f]indazol-7-yl]propylurea], the EC50 is above 3 µM.

As for `CCS(=O)(=O)CCc1c(C2CCOCC2)n(-c2ccc(F)cc2)c2cc3cn[nH]c3cc12` [Compound 158, 7-(2-ethylsulfonylethyl)-5-(4-fluorophenyl)-6-tetrahydropyran-4-yl-1H-pyrrolo[2,3-f]indazole], the EC50 is above 3 µM.

As to `CNS(=O)(=O)CCc1c(C2CCOCC2)n(-c2ccc(F)cc2)c2cc3cn[nH]c3cc12` [Compound 159, 2-[5-(4-fluorophenyl)-6-tetrahydropyran-4-yl-1H-pyrrolo[2,3-f]indazol-7-yl]-N-methyl-ethanesulfonamide], the EC50 is 1.16 to 3 µM.

On to `NC(=O)[C@H]1C[C@@H](c2c(C3CCOCC3)n(-c3ccc(F)cc3)c3cc4cn[nH]c4cc32)C1` [Compound 160], for which the EC50 was above 3 µM.

As to `Fc1ccc(-n2c(C3CCOCC3)c(CCCn3cncn3)c3cc4[nH]ncc4cc32)cc1` [Compound 164], the EC50 was above 3 µM.

Take `Fc1ccc(-n2c(C3CCOCC3)c(CCCn3ccnc3)c3cc4[nH]ncc4cc32)cc1` [Compound 165]: the EC50 fell in the range of 1.16 to 3 µM.

Regarding `NC(=O)CCc1c(C2CCOCC2)n(-c2ccc(F)cc2)c2cc3cn[nH]c3cc12` [Compound 166, 3-[5-(4-fluorophenyl)-6-tetrahydropyran-4-yl-1H-pyrrolo[2,3-f]indazol-7-yl]propanamide], the EC50 is above 3 µM.

`[2H]C(C(=O)O)C([2H])c1c(C(C)C)n(-c2ccc(F)cc2)c2cc3cn[nH]c3cc12` (stereo not shown) [Compound 167, 2,3-dideuterio-3-[5-(4-fluorophenyl)-6-isopropyl-1H-pyrrolo[2,3-f]indazol-7-yl]propanoic Acid]: the EC50 lay in the range of 1.16 to 3 µM.

Turning to `[2H]C(C(=O)O)C([2H])([2H])c1c(C(C)C)n(-c2ccc(F)cc2)c2cc3cn[nH]c3cc12` (stereo not shown) [Compound 168, 2,3,3-trideuterio-3-[5-(4-fluorophenyl)-6-isopropyl-1H-pyrrolo[2,3-f]indazol-7-yl]propanoic acid], the EC50 was 1.16 to 3 µM.

Take `[2H]C([2H])(CC(=O)O)c1c(C(C)C)n(-c2ccc(F)cc2)c2cc3cn[nH]c3cc12` [Compound 169, 3,3-dideuterio-3-[5-(4-fluorophenyl)-6-isopropyl-1H-pyrrolo[2,3-f]indazol-7-yl]propanoic Acid]: the EC50 lay in the range of 1.16 to 3 µM.

Take `[2H]C([2H])(Cc1c(C(C)C)n(-c2ccc(F)cc2)c2cc3cn[nH]c3cc12)C(=O)O` [Compound 170, 2,2-dideuterio-3-[5-(4-fluorophenyl)-6-isopropyl-1H-pyrrolo[2,3-f]indazol-7-yl]propanoic Acid]: the EC50 was in the range of 1.16 to 3 µM.

As to `[2H]C([2H])(C(=O)O)C([2H])([2H])c1c(C(C)C)n(-c2ccc(F)cc2)c2cc3cn[nH]c3cc12` [Compound 171, 2,2,3,3-tetradeuterio-3-[5-(4-fluorophenyl)-6-isopropyl-1H-pyrrolo[2,3-f]indazol-7-yl]propanoic Acid], the EC50 was below 1.16 µM.

As to `CC(C)c1c(C2CNC2)c2cc3[nH]ncc3cc2n1-c1ccc(F)cc1` [Compound 174, 7-(azetidin-3-yl)-5-(4-fluorophenyl)-6-isopropyl-1H-pyrrolo[2,3-f]indazole], the EC50 was above 3 µM.

For `COCC(C)(C)c1c(CC2CC(C(=O)O)C2)c2cc3[nH]ncc3cc2n1-c1ccc(F)cc1` (stereo not shown) [Compound 175], the EC50 was 1.16 to 3 µM.

Turning to `COCC(C)(C)c1c(CCC(=O)O)c2cc3[nH]ncc3cc2n1-c1ccc(F)cc1` [Compound 177], the EC50 is 1.16 to 3 µM.

On to `COCCc1c(C(C)(C)COC)n(-c2ccc(F)cc2)c2cc3cn[nH]c3cc12` [Compound 178], for which the EC50 fell in the range of 1.16 to 3 µM.

As for `COCC(C)(C)c1c(CCCN)c2cc3[nH]ncc3cc2n1-c1ccc(F)cc1` [Compound 179], the EC50 was above 3 µM.

`COCC(C)(C)c1c(CCCNC(N)=O)c2cc3[nH]ncc3cc2n1-c1ccc(F)cc1` [Compound 180]: the EC50 lay in the range of 1.16 to 3 µM.

Consider `COCC(C)(C)c1c(CCCNC(=O)OCc2ccccc2)c2cc3[nH]ncc3cc2n1-c1ccc(F)cc1` [Compound 181], for which the EC50 is above 3 µM.

Take `COCC(C)(C)c1c(CC2CCS(=O)(=O)CC2)c2cc3[nH]ncc3cc2n1-c1ccc(F)cc1` [Compound 182]: the EC50 is 1.16 to 3 µM.

In the case of `COCC(C)(C)c1c(CCC(N)=O)c2cc3[nH]ncc3cc2n1-c1ccc(F)cc1` [Compound 183], the EC50 is above 3 µM.

With `C[C@H](O)C(=O)N1CC2(CC(c3c(C4CCOCC4)n(-c4ccc(F)c(F)c4)c4cc5cn[nH]c5cc34)C2)C1` [Compound 184, (2S)-1-[6-[5-(3,4-difluorophenyl)-6-tetrahydropyran-4-yl-1H-pyrrolo[2,3-f]indazol-7-yl]-2-azaspiro[3.3]heptan-2-yl]-2-hydroxy-propan-1-one], the EC50 is above 3 µM.

Turning to `C[C@@H](O)C(=O)N1CC2(CC(c3c(C4CCOCC4)n(-c4ccc(F)c(F)c4)c4cc5cn[nH]c5cc34)C2)C1` [Compound 185, (2R)-1-[6-[5-(3,4-difluorophenyl)-6-tetrahydropyran-4-yl-1H-pyrrolo[2,3-f]indazol-7-yl]-2-azaspiro[3.3]heptan-2-yl]-2-hydroxy-propan-1-one], the EC50 fell in the range of 1.16 to 3 µM.

Turning to `N#Cc1n[nH]c2cc3c(C4CC5(CC(C(=O)O)C5)C4)c(C4CCOCC4)n(-c4ccc(F)c(F)c4)c3cc12` (stereo not shown) [Compound 186, 6-[3-cyano-5-(3,4-difluorophenyl)-6-tetrahydropyran-4-yl-1H-pyrrolo[2,3-f]indazol-7-yl]spiro[3.3]heptane-2-carboxylic Acid], the EC50 was above 3 µM.

As to `[2H]c1c([2H])c(-n2c(C(C)C)c(CCC(=O)O)c3cc4[nH]ncc4cc32)c([2H])c([2H])c1F` [Compound 188, 3-[6-isopropyl-5-(2,3,5,6-tetradeuterio-4-fluoro-phenyl)-1H-pyrrolo[2,3-f]indazol-7-yl]propanoic Acid], the EC50 fell in the range of 1.16 to 3 µM.

In the case of `[2H]c1n[nH]c2c([2H])c3c(CC([2H])([2H])C(=O)O)c(C([2H])(C)C)n(-c4ccc(F)cc4)c3c([2H])c12` [Compound 189, 2,2-dideuterio-3-[3,4,8-trideuterio-6-(1-deuterio-1-methyl-ethyl)-5-(4-fluorophenyl)-1H-pyrrolo[2,3-f]indazol-7-yl]propanoic Acid], the EC50 lay within 1.16 to 3 µM.

With `CC(C)(CC#N)c1c(CCC(=O)O)c2cc3[nH]ncc3cc2n1-c1ccc(F)cc1` [Compound 190, 3-[6-(2-cyano-1,1-dimethyl-ethyl)-5-(4-fluorophenyl)-1H-pyrrolo[2,3-f]indazol-7-yl]propanoic Acid], the half-maximal effective concentration (EC50) is above 3 µM.

For `CC(C)(CC#N)c1c(CCC(N)=O)c2cc3[nH]ncc3cc2n1-c1ccc(F)cc1` [Compound 191, 3-[6-(2-cyano-1,1-dimethyl-ethyl)-5-(4-fluorophenyl)-1H-pyrrolo[2,3-f]indazol-7-yl]propanamide], the EC50 is above 3 µM.

On to `C=C(C)c1c(CCC(=O)O)c2cc3[nH]ncc3cc2n1-c1ccc(F)cc1` [Compound 192, 3-[5-(4-fluorophenyl)-6-isopropenyl-1H-pyrrolo[2,3-f]indazol-7-yl]propanoic Acid], for which the EC50 was in the range of 1.16 to 3 µM.

For `[2H]C([2H])([2H])C([2H])(c1c(CCC(=O)O)c2cc3[nH]ncc3cc2n1-c1ccc(F)cc1)C([2H])([2H])[2H]` [Compound 193, 3-[5-(4-fluorophenyl)-6-[1,2,2,2-tetradeuterio-1-(trideuteriomethyl)ethyl]-1H-pyrrolo[2,3-f]indazol-7-yl]propanoic Acid], the EC50 was 1.16 to 3 µM.

Consider `CC(C)c1c(CCC(=O)O)n(-c2ccc(F)cc2)c2cc3cn[nH]c3cc12` [Compound 194, 3-[5-(4-fluorophenyl)-7-isopropyl-1H-pyrrolo[2,3-f]indazol-6-yl]propanoic Acid], for which the EC50 was above 3 µM.

For `Cc1cc(-n2c(C(C)C)c(CCC(=O)O)c3cc4c(cnn4C)cc32)ccc1F` [Compound 195, 3-[5-(4-fluoro-3-methyl-phenyl)-6-isopropyl-1-methyl-pyrrolo[2,3-f]indazol-7-yl]propanoic Acid], the EC50 was above 3 µM.
